Results taken from patent US20210000814A1, “RIMEGEPANT FOR CGRP RELATED DISORDERS” (Biohaven Pharmaceutical Holding Company Ltd., priority 2018, published 2021).

Key:
[1] = BHV3000-301 Phase 3 trial: safety and tolerability; type: in vivo, human; settings: Study 301
Description: Methods • In a double-blind, randomized, placebo-controlled, multicenter study (Study 301, NCT03235479) adults ≥[…] of age with at least a 1-year history of ICHD 3-beta migraine were eligible to participate. Following a 3- to 28-day screening period, subjects were randomized to receive rimegepant 75 mg or matching placebo and instructed to treat a single migraine attack with 1 dose of the blinded study drug (rimegepant or placebo) when headache pain reached moderate or severe intensity. The coprimary endpoints were pain freedom at 2 hours postdose and freedom from the most bothersome symptom (MBS) at 2 hours postdose. Safety assessments included adverse events (AEs), ECGs, vital signs, physical measurements, and routine laboratory tests, including assessment of liver function. Unless stated otherwise, values presented are mean±SD.

[2] = system: subjects with Acute Migraines; assay: BHV3000-302 Phase 3 trial, acute treatment of migraine: efficacy; type: in vivo, human; settings: Study 302; P<0.0001
Description: Clinical Trial—BHV3000-302: Phase 3: Double-Blind, Randomized, Placebo-Controlled, Safety and Efficacy Trial of BHV-3000 (Rimegepant) for the Acute Treatment of Migraine (ClinicalTrials.gov Identifier: NCT03237845) • A phase 3 clinical study was conducted with 1503 participants, as follows. […] Pain Freedom of rimegepant (75 mg tablet) compared with placebo in the acute treatment of migraine will be measured using the number of evaluable subjects that report no pain at 2 hours post-dose. [Time Frame: Two hours post dose] • Pain will be measured on a 4 point Likert scale (0=none, 1=mild, 2=moderate, 3=severe) • 2. Freedom from the most bothersome symptom (MBS) of rimegepant (75 mg tablet) compared with placebo will be measured using the number of evaluable subjects that report the absence of their MBS at 2 hours post-dose. […] The MBS (nausea, phonophobia or photophobia) will measured using a binary scale (0=absent, 1=present). […] [Time Frame: 2 hours-24 hours post-dose] • Sustained Pain Freedom as measured by a 4 point numeric rating scale (None, Mild, Moderate, Severe) • 2. […] [Time Frame: 2 hours post-dose] • Pain Relief as measured by a 4 point numeric rating scale (None, Mild, Moderate, Severe) • 5. […] [Time Frame: 2 hours-48 hours post-dose] • Sustained Pain Freedom as measured by a 4 point numeric rating scale (None, Mild, Moderate, Severe) • 8. […]

## N[C@@H]1c2cccnc2[C@H](OC(=O)N2CCC(n3c(=O)[nH]c4ncccc43)CC2)CC[C@H]1c1cccc(F)c1F [Rimegepant, [(55,65,9R)-5-amino-6-(2,3-difluorophenyl)-6,7,8,9-tetrahydro-5H-cyclohepta[b]pyridin-9-yl]4-(2-oxo-3H-imidazo[4,5-b]pyridin-1-yl)piperidine-1-carboxylate]
[1]
  SAE related to the study drug: No SAE
  bilirubin elevations >2 times ULN: No bilirubin elevations
  transaminase level >5 times ULN: no subject
[1]; 75 mg oral tablet
  safety and tolerability profile: favorable tolerability and safety
[1]; 4/546 subjects
  AE dizziness: 0.7%
[1]; 5/546 subjects
  AE nausea: 0.9%
[1]; 11/546 subjects
  Serum ALT or AST levels greater than ULN: 2.0%
[1]; n=2, both not dosed before onset
  Serious AEs (SAEs): 0.4%
[2]
  patients achieving normal function at 2 hours (functional disability) versus placebo: greater proportion
